Non-standard residues stand in square brackets, D forms with d. Residues, ends and D or L forms follow the SMILES beside them. *: point of attachment. pY = N[C@@H](Cc1ccc(OP(=O)(O)O)cc1)C(=O)O; NBD = O=[N+]([O-])c1ccc(*)c2nonc12; βAla = NCCC(=O)O
Tested on: iPSCs
Test: CLSM imaging of peptide assemblies in iPSCs
Type: cell-based, human
Procedure: Confocal Laser Scanning Microscopy (CLSM) Imaging: For live cell imaging, cells in exponential growth phase were seeded in a confocal dish (3.5 cm) at 1.0×10^5 cells per dish and then incubated in incubator for 24 h. We removed culture medium, and added fresh medium containing precursors for different time points. After removing the medium and washing the cells with live cell imaging solution (2 mL×2), the cells were used for CLSM imaging. For time-dependent live cell imaging, cells in exponential growth phase were seeded in a confocal dish (3.5 cm) at 1.0×10^5 cells per dish and then incubated in incubator for 24 h. After removing culture medium, we treated the cells with 1 mL of Hoechst 33342 (1 μg mL^−1) for 10 minutes. After being washed with culture medium (2 mL×2), the cells were incubated with fresh medium containing precursor 5 in a Tokai Hit stage top incubator (STXF-WSKMX-SET) to be used for CLSM imaging. All the CLSM images were obtained using Zeiss LSM 880 confocal microscopy at the lens of 63× with oil. The lasers used are 405 nm and 488 nm.
Because the fluorescence of NBD increases drastically from unassembled to assembled state, confocal laser scanning microscopy (CLSM) was suitable to reveal the cellular location of the peptide assemblies formed after dephosphorylation catalyzed by ALP. […] The blackness in nuclei overlaps well with the strong fluorescence. […] The results confirms that the nucleus-targeting mainly originates from the ALP catalyzed dephosphorylation.
To trace the dynamics of the formation and distribution of 5 inside iPSC cells, time-lapse CLSM was also used to image the changes of the fluorescence in the iPSCs incubated by 5 (400 μM). Using one cell as a representative case, after 6 minutes incubation fluorescent puncta appear on the membrane, likely originating from the aggregates of assemblies of 5 and those of 6 generated by the dephosphorylation catalyzed by ALP. […] After 24 minutes incubation, fluorescence starts to grow in the cytoplasm. Considering the LLLLY motif in SEQ ID NO: 2 constitutes the transmembrane domains of 18 human membrane proteins, it is possible that the affinity of 5 or 6 to membrane allows the assemblies of the mixture of 5 and 6 to interact with cellular membranes, which then facilitates nuclear localization. At about 28 minutes of incubation, fluorescence appears in the nucleus. Moreover, the nuclei shrink after the assemblies emerge in the nuclei. In addition, the nuclei also show nuclear blebbing (Stephens et al., “Chromatin Histone Modifications and Rigidity Affect Nuclear Morphology Independent of Lamins,” Mol. Biol. Cell 29(2):220-233 (2018), which is hereby incorporated by reference in its entirety). The shrinkage of nuclei and nuclear blebbing likely associate with iPSC death. To further examine the dynamics of EISA-formed peptide assemblies in iPSCs over different time, the increase of fluorescence in two cells over 2 hours was monitored; their nuclei, A and B, are shown in FIG. 10A. […] The mean fluorescent intensity in Nucleus A starts to increase at 28 minutes and levels off after 110 minutes. For Nucleus B, the mean fluorescent intensity keeps increasing from 38 minutes. The increases of the fluorescence in the nuclei and nucleoli are synchronous. […] The assemblies inside the nuclei or near nuclear membrane induce nuclear blebbing and shrinkage of nuclei, which likely contributes to the cell death.

[1] = 400 μM, time-lapse CLSM, one representative cell

## CC(C)C[C@H](NC(=O)CCNc1ccc([N+](=O)[O-])c2nonc12)C(=O)N[C@@H](CC(C)C)C(=O)N[C@@H](CC(C)C)C(=O)N[C@@H](CC(C)C)C(=O)N[C@@H](Cc1ccc(OP(=O)(O)O)cc1)C(=O)O [compound 5, NBD-βA-LLLLpY] ({NBD-βAla}-LLLL[pY]-OH)
200 μM
  NBD fluorescence in iPSCs: hardly any fluorescence in the cells
400 μM plus DQB 5 μM, 2 hours
  NBD fluorescence in iPSCs with ALP inhibitor: little fluorescence in cells
400 μM, 2 hours
  NBD fluorescence in iPSCs (location of peptide assemblies): strong NBD fluorescence in nuclei
[1]
  incubation time at which fluorescence appears in the nucleus: about 28 minutes
  incubation time at which fluorescence starts to grow in the cytoplasm: 24 min
  incubation time at which fluorescent puncta appear on the membrane: 6 min
400 μM, treatment time 1 hour
  NBD fluorescence in iPSC nuclei: weaker fluorescence

Source: patent publication US20240294570A1, “ENZYMATICALLY FORMING INTRANUCLEAR PEPTIDE ASSEMBLIES FOR SELECTIVELY KILLING INDUCED PLURIPOTENT STEM CELLS” (BRANDEIS UNIVERSITY, priority 2021, published 2024)
